The source of these data is patent US20110288082A1, “METHODS AND COMPOSITIONS FOR INHIBITION OF THE TRANSITIONAL ENDOPLASMIC RETICULUM ATPASE” (priority 2010, published 2011).

Where two headings read alike, the source gives them in different places.

The test system of test [1] is p97-dependent Ub^G76V-GFP degradation in HeLa cells. Put plainly: Ub^G76V-GFP degradation (turn-over) assay. The test is classed as cell-based, human. Conditions: Homo sapiens, HeLa. As to the method:
Ub^G76V-GFP Degradation Assay
Two GFP images with 100 ms exposure time per well were acquired and the average GFP intensity per area of a HeLa cell was determined by using MetaXpress software. Mean GFP intensity of 300-500 cells was calculated using Excel. Normalized GFP intensity was calculated using the following formula: (Test compound−Background)/(Basal GFP intensity—Background). Where: Test compound is defined as Mean GFP intensity of Ub^G76V-GFP-expressing cells treated with the test compound. Background is defined as background GFP intensity of HeLa cells. Basal GFP intensity is defined as mean GFP intensity of Ub^G76V-GFP-expressing cells treated with DMSO. […] The percent of remaining k for each compound is calculated using the following formula: (Test compound/DMSO control)*100. Where: Test_compound is defined as k determined from wells containing test compound, DMSO control is defined as k determined from wells containing DMSO.

The target in a further test is p97 (Homo sapiens, UniProt P55072). Put plainly: p97 ATPase assay (Kinase Glo Plus; biomol green for compounds that interfere with luciferase). The test is classed as biochemical. As to the method: Assay Buffer (20 μL of 2.5× concentration, where 1×=50 mM Tris pH 7.4, 20 mM MgCl2, 1 mM EDTA, 0.5 mM TCEP) was dispensed into each well of a 96 well plate. Purified p97 (25 μL of 50 μM) was diluted in 975 μL, of 1× Assay Buffer and 10 μL was dispensed in each well. Test compound (10 μL) or 5% DMSO (10 μL) was then added to each well and the plate was incubated at room temperature for 10 min. The ATPase assay was carried out by adding to each well 10 μL of 500 μM ATP (pH 7.5), incubating at room temperature for 60 min, and then adding 50 μL Kinase Glo Plus reagent (Promega) followed by a final 10 min incubation at room temperature in the dark. Luminescence was read on an Analyst AD (Molecular Devices). Compounds were assayed at a range of concentrations (0, 0.048, 0.24, 1.2, 6, 30 μM) in triplicate. The percent of remaining activity for each reaction was calculated using the following mathematical expression: ((Test Compound-High Control)/(Low Control-High Control))*100. Test_Compound is defined as wells containing test compound, Low_Control is defined as wells containing DMSO, High_Control is defined as wells containing no p97 protein. […] The result was expressed as mean +/− standard error. For assays with Myriad 12 and 19, 100 μL of biomol green reagent (Enzo Life Sciences) was added to each well instead of kinase Glo Plus (Promega) and absorbance at 630 nm was measured. This was done because these compounds interfered with luciferase activity. […]
Sequence of p97 (P55072 2-806 limits assumed): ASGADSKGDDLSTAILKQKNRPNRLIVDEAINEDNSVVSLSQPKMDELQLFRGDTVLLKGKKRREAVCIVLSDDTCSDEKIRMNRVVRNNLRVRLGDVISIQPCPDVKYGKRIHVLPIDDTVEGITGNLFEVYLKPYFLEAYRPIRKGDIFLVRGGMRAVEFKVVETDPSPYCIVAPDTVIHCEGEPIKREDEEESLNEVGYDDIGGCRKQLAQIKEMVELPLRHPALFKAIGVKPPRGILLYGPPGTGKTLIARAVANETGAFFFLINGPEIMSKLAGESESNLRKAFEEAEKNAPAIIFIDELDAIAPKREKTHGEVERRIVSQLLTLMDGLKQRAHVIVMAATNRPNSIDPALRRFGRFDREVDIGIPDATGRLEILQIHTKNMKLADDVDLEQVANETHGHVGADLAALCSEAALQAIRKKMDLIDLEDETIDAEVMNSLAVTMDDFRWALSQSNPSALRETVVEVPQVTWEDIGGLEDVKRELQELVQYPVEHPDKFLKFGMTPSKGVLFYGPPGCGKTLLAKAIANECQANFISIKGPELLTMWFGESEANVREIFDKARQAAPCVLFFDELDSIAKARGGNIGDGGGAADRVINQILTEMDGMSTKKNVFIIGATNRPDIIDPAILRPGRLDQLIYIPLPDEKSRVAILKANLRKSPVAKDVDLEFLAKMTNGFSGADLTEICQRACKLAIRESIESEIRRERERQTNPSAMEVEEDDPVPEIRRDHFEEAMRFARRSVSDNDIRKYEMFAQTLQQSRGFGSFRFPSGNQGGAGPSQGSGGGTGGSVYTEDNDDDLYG

The mark [2] stands for this setting: read-out: IC50 (μM) Ub^G76V-GFP turn over, Ub^G76V-GFP-expressing HeLa cells, degradation rate constant k from 90 to 180 min, mean +/- standard error.
The mark [3] stands for this setting: purified p97, ATP, 60 min room temperature, mean +/- standard error.
[4] abbreviates: read-out: IC50 (μM) Ub^G76V-GFP turn over, p97-dependent Ub^G76V-GFP degradation turn-over assay.

As a reminder, the IC50 is the point on the concentration scale where inhibition reaches its midpoint.

`COc1c(Cl)cccc1Nc1nc(NCc2ccccc2)c2ccccc2n1` [V-1]: the results for the IC50 (in test [1] (setting [2]); at p97 (setting [3])) were 6.3 ± 1.7 µM and 0.9 ± 0.2 µM, respectively.
On to `Cc1c(F)cccc1Nc1nc(NCc2ccccc2)c2ccccc2n1` [V-2], for which the half-inhibitory concentration (IC50) in test [1] (setting [2]) is 3.7 ± 0.8 µM; on p97 (setting [3]), 0.9 ± 0.1 µM.
For `Cc1cc(F)cc(Nc2nc(NCc3ccccc3)c3ccccc3n2)c1` [V-3], in that order: 5.4 ± 0.8 µM and 0.7 ± 0.05 µM.
For `COc1c(F)cccc1Nc1nc(NCc2ccccc2)c2ccccc2n1` [V-4], in that order: 12 ± 3 µM and 1.7 ± 0.5 µM.
The corresponding values for `Cc1c(Cl)cccc1Nc1nc(NCc2ccccc2)c2ccccc2n1` [V-5] are 5.5 ± 1 µM and 0.7 ± 0.1 µM.
Consider `Cc1ccc(F)cc1Nc1nc(NCc2ccccc2)c2ccccc2n1` [V-6], for which the IC50 in test [1] (setting [2]) turned out to be 5 ± 1 µM; on p97 (setting [3]), 0.8 ± 0.1 µM.
The corresponding values for `Cc1ccc(Nc2nc(NCc3ccccc3)c3ccccc3n2)cc1F` [V-7] are 5.2 ± 1.2 µM and 0.9 ± 0.2 µM.
For `COc1ccc(Nc2nc(NCc3ccccc3)c3ccccc3n2)cc1F` [V-8], in that order: 4.7 ± 0.8 µM and 0.9 ± 0.1 µM.
The corresponding values for `Cc1ccc(Cl)cc1Nc1nc(NCc2ccccc2)c2ccccc2n1` [V-9] are 7 ± 1.5 µM and 0.8 ± 0.07 µM.
For the compound `COc1ccc(Cl)cc1Nc1nc(NCc2ccccc2)c2ccccc2n1` [V-10], the IC50 is 16 ± 6 µM in test [1] (setting [2]) and 1.1 ± 0.2 µM at p97 (setting [3]).
The corresponding values for `COc1ccc(F)cc1Nc1nc(NCc2ccccc2)c2ccccc2n1` [V-11] are 9.3 ± 1 µM and 6.7 ± 3 µM.
For `Clc1cccc2nc(NCc3ccccc3)nc(NCc3ccccc3)c12` [VI-1], in that order: 16 ± 2 µM and 2.2 ± 0.7 µM.
The corresponding values for `Fc1cccc2nc(NCc3ccccc3)nc(NCc3ccccc3)c12` [VI-2] are 13 ± 2 µM and 1.2 ± 0.3 µM.
Regarding `Clc1ccc2nc(NCc3ccccc3)nc(NCc3ccccc3)c2c1` [VI-3], the half-inhibitory concentration (IC50) in test [1] (setting [2]) amounted to 6.6 ± 0.9 µM; at p97 (setting [3]) it was 1.6 ± 0.4 µM.
Consider `COc1cc2nc(NCc3ccccc3)nc(NCc3ccccc3)c2cc1OC` [VI-4], for which the values for the half-inhibitory concentration (IC50) (in test [1] (setting [2]); on p97 (setting [3])) were 8.8 ± 1.5 µM and 4.4 ± 1.8 µM, respectively.
As to `COc1cccc2c(NCc3ccccc3)nc(NCc3ccccc3)nc12` [VI-5, N2,N4-dibenzyl-8-methoxyquinazoline-2,4-diamine], the IC50 in test [1] (setting [2]) is 10 ± 2 µM; at p97 (setting [3]), 0.6 ± 0.06 µM.
For `Cc1ccc2c(NCc3ccccc3)nc(NCc3ccccc3)nc2c1` [VI-6], in that order: 6.1 ± 1.6 µM and 2.2 ± 0.4 µM.
For `FC(F)(F)c1ccc2c(NCc3ccccc3)nc(NCc3ccccc3)nc2c1` [VI-7], in that order: 19 ± 1 µM and 9.1 ± 2 µM.
In the case of `N#Cc1ccc2c(NCc3ccccc3)nc(NCc3ccccc3)nc2c1` [VI-8], the half-inhibitory concentration (IC50) in test [1] (setting [4]) stood at 21 ± 3 µM; on p97 (p97 ATPase assay), 25 ± 10 µM.
For the compound `Fc1cccc2c(NCc3ccccc3)nc(NCc3ccccc3)nc12` [VI-10], the IC50 in test [1] (setting [2]) stood at 18 ± 2 µM; at p97 (setting [3]), 3.1 ± 0.5 µM.
For `Fc1ccc2c(NCc3ccccc3)nc(NCc3ccccc3)nc2c1` [VI-11], in that order: 6.1 ± 0.8 µM and 2.6 ± 0.5 µM.
The corresponding values for `Clc1ccc2c(NCc3ccccc3)nc(NCc3ccccc3)nc2c1` [VI-12] are 6.3 ± 0.9 µM and 5.5 ± 0.9 µM.
The corresponding values for `COc1ccc2c(NCc3ccccc3)nc(NCc3ccccc3)nc2c1` [VI-13] are 42 ± 6 µM and 5.7 ± 1 µM.
Regarding `COc1ccc2nc(NCc3ccccc3)nc(NCc3ccccc3)c2c1` [VI-14], the 50% inhibitory concentration (IC50) in test [1] (setting [2]) is 8.6 ± 1.7 µM; on p97 (setting [3]), 7.5 ± 1.1 µM.
With `Fc1ccc2nc(NCc3ccccc3)nc(NCc3ccccc3)c2c1` [VI-15], the IC50 in test [1] (setting [2]) turned out to be 8.2 ± 1.5 µM; on p97 (setting [3]), 4.7 ± 0.4 µM.
With `Brc1ccc2c(NCc3ccccc3)nc(NCc3ccccc3)nc2c1` [VI-16], the IC50 was found to be 10 ± 2 µM in test [1] (setting [4]) and 22 ± 4 µM on p97 (p97 ATPase assay).
For `c1ccc(CNc2nc(N3CCCc4ccccc43)nc3ccccc23)cc1` [VII-1], the IC50 in test [1] (setting [2]) turned out to be 10 ± 2 µM; at p97 (setting [3]), 4.4 ± 1.8 µM.
The corresponding values for `c1ccc(CNc2nc(N3CCc4ccccc43)nc3ccccc23)cc1` [VII-2] are 11 ± 3 µM and 2 ± 0.5 µM.
For `c1ccc(CNc2nc(N3CCOc4ccccc43)nc3ccccc23)cc1` [VII-3], in that order: 7 ± 1.9 µM and 0.6 ± 0.2 µM.
Turning to `c1ccc(CNc2nc(N3CCNc4ccccc43)nc3ccccc23)cc1` [VII-4], the IC50 came out at 6.3 ± 1 µM in test [1] (setting [2]) and 0.4 ± 0.05 µM on p97 (setting [3]).
For `COc1cccc2c(NCc3ccccc3)nc(N3CCNc4ccccc43)nc12` [VII-5], in that order: 3.7 ± 0.2 µM and 0.9 ± 0.1 µM.
For `COc1cccc2c(NCc3ccccc3)nc(N3CCOc4ccccc43)nc12` [VII-6], in that order: 3.3 ± 0.4 µM and 0.2 ± 0.02 µM.
The corresponding values for `Oc1cccc2c(NCc3ccccc3)nc(N3CCOc4ccccc43)nc12` [VII-7] are 7.7 ± 1.7 µM and 1.2 ± 0.3 µM.
For `c1ccc(CNc2nc(N3CCOc4ccccc43)nc3c(-c4ccccc4)cccc23)cc1` [VII-8], the IC50 in test [1] (setting [2]) came out at 5 ± 0.9 µM; at p97 (setting [3]), 3.5 ± 0.6 µM.
The corresponding values for `OCCOc1cccc2c(NCc3ccccc3)nc(N3CCOc4ccccc43)nc12` [VII-9] are 3.8 ± 0.8 µM and 0.17 ± 0.05 µM.
The corresponding values for `CCN(CC)CCOc1cccc2c(NCc3ccccc3)nc(N3CCOc4ccccc43)nc12` [VII-10] are 5.3 ± 0.6 µM and 0.4 ± 0.08 µM.
For `COc1ccc(-c2cccc3c(NCc4ccccc4)nc(N4CCOc5ccccc54)nc23)cc1` [VII-11], in that order: 9 ± 1 µM and 1.1 ± 0.1 µM.
With `COc1cccc2c(NCc3ccccc3)nc(N3CCN(C)c4ccccc43)nc12` [VII-12], the IC50 in test [1] (setting [2]) came out at 7.8 ± 0.7 µM; at p97 (setting [3]), 3.1 ± 0.5 µM.
The corresponding values for `COc1cccc2c(NCc3ccccc3)nc(N3CCN(C(C)=O)c4ccccc43)nc12` [VII-13] are 8 ± 1 µM and 2.7 ± 0.6 µM.
For `COCCOc1cccc2c(NCc3ccccc3)nc(N3CCOc4ccccc43)nc12` [VII-14], in that order: 6.5 ± 0.7 µM and 0.6 ± 0.03 µM.
As for `CCCCc1cccc2c(NCc3ccccc3)nc(N3CCOc4ccccc43)nc12` [VII-15], the IC50 was 28 ± 3 µM in test [1] (setting [4]) and 2.63 ± 0.7 µM at p97 (p97 ATPase assay).
Consider `COc1cccc2c(NCc3ccccc3)nc(-n3c(N)nc4ccccc43)nc12` [VII-16], for which the results for the half-maximal inhibitory concentration (IC50) (in test [1] (setting [2]); on p97 (setting [3])) were 0.9 ± 0.1 µM and 0.11 ± 0.03 µM, respectively.
For `COc1cccc2c(NCc3ccccc3)nc(-n3c(=O)oc4ccccc43)nc12` [VII-17], in that order: 5 ± 1 µM and 0.11 ± 0.03 µM.
The corresponding values for `c1ccc(CNc2nc(N3CCOc4ccccc43)nc3c2CCCC3)cc1` [VIII] are 3.5 ± 0.4 µM and 0.11 ± 0.03 µM.
In the case of `COc1cccc2c(NCc3ccccc3)nc(-n3cnc4ccccc43)nc12` [XI-1], the half-inhibitory concentration (IC50) in test [1] (setting [2]) was found to be 78 ± 45 µM; on p97 (setting [3]), 3.3 ± 1.1 µM.
As to `COc1cccc2c(NCc3ccccc3)nc(N3CCOCC3)nc12` [XI-2], the IC50 turned out to be 47 ± 9 µM in test [1] (setting [4]) and 31 ± 7 µM at p97 (p97 ATPase assay).
As for `COc1cccc2c(NCc3ccccc3)nc(NC(N)=O)nc12` [XI-3], the IC50 worked out at 108 ± 31 µM in test [1] (setting [4]) and 49 ± 10 µM on p97 (p97 ATPase assay).
For `COc1cccc2c(NCc3ccccc3)nc(N3CCN(C)CC3)nc12` [XI-4], in that order: 45 ± 18 µM and above 30 µM.
With `COc1cccc2c(NCc3ccccc3)nc(Nc3nc4ccccc4s3)nc12` [XI-5], the 50% inhibitory concentration (IC50) in test [1] (setting [2]) stood at 14 ± 2 µM; on p97 (setting [3]), 0.5 ± 0.2 µM.
On to `COc1cccc2c(NCc3ccccc3)nc(Nc3nc4ccccc4n3C)nc12` [XI-6], for which the IC50 turned out to be 7.8 ± 1.2 µM in test [1] (setting [2]) and 0.3 ± 0.07 µM on p97 (setting [3]).
Regarding `COc1cccc2c(NCc3ccccc3)nc(NC(=O)N(C)C)nc12` [XI-7], the IC50 in test [1] (setting [4]) was determined as 37 ± 7 µM; on p97 (p97 ATPase assay) it was 60 ± 23 µM.
With `COc1cccc2c(NCc3ccccc3)nc(N3CCc4ccccc4C3)nc12` [XI-8], the IC50 in test [1] (setting [2]) is 7 ± 1.3 µM; on p97 (setting [3]) it was 15 ± 3 µM.
